A short description of the data set: Solubility test (amount of organic solvent needed to completely dissolve 1 g of compound). The conditions noted are these: 1 g compound, room temperature, solvent added drop by drop with stirring. The data set is classed as physicochemical. As to the method:
1 g of a compound to be tested was poured into a test tube with stirring at room temperature and solvents listed in Table 1 were slowly added drop by drop. The amounts of the solvents required to completely dissolve 1 g of the tested compound were measured.

This note sets out measurements from patent US20060183043A1, “Electrophotographic photoreceptor containing pyridine-substituted asymmetric naphthalenetetracarboxylic acid diimide derivatives and electrophotographic imaging apparatus” (Samsung Electronics Co., Ltd., priority 2005, published 2006).

With `CCc1ccc(C)nc1N1C(=O)c2ccc3c4c(ccc(c24)C1=O)C(=O)N(c1ccccc1)C3=O` [Compound (1)], the “Amount of solvent required to completely dissolve 1 g of the tested compound: Acetone” value is 130 g, the “Amount of solvent required to completely dissolve 1 g of the tested compound: Chloroform” value worked out at 5.3 g, the “Amount of solvent required to completely dissolve 1 g of the tested compound: Methylene chloride” value is 6.5 g and the “Amount of solvent required to completely dissolve 1 g of the tested compound: Tetrahydrofuran” value was found to be 5.8 g.

On to `CCc1ccc(C)nc1N1C(=O)c2ccc3c4c(ccc(c24)C1=O)C(=O)N(c1nc(C)ccc1CC)C3=O` [Compound (40)], for which the “Amount of solvent required to completely dissolve 1 g of the tested compound: Acetone” value is reported as 282 g, the “Amount of solvent required to completely dissolve 1 g of the tested compound: Chloroform” value came out at 8.6 g, the “Amount of solvent required to completely dissolve 1 g of the tested compound: Methylene chloride” value was 10.2 g and the “Amount of solvent required to completely dissolve 1 g of the tested compound: Tetrahydrofuran” value was 9.7 g.
